Experimental data published in patent EP1247803A2, “Indolinone compounds suitable for modulation of protein kinases” (Sugen, Inc., priority 1996, dated 1998).

What was measured:
FLK-1 receptor = target: T1, FLK-1 receptor (Mus musculus, UniProt P35918); assay: FLK-1 ELISA (kinase activity of the FLK-1 receptor in FLK-1/NIH3T3 cells, VEGF stimulated); format: cell-based
T1 construct: expressed in transfected cells; host or cells: NIH3T3 C7#3
Outline: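 FLK-1-expressing NIH3T3 C7#3 cells, starved overnight in 0.1% FBS medium, were treated with compounds at a 1:200 final dilution (0.5% DMSO) for 2 h at 37 °C, with VEGF stimulation. FLK-1 kinase activity was read by ELISA on anti-rabbit IgG plates using affinity-purified anti-FLK-1 antiserum.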

MET = MET biochemical kinase assay; design: species or system human; concentration or dose not given beside the values
Outline: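 Immunocaptured MET autophosphorylation, read colorimetrically (TMB) via HRP anti-phosphotyrosine antibody. Kinase reaction initiated with buffer containing ATP and divalent metals after compound addition to plate-bound receptor from lysates.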

T1 sequence (P35918 20-1345): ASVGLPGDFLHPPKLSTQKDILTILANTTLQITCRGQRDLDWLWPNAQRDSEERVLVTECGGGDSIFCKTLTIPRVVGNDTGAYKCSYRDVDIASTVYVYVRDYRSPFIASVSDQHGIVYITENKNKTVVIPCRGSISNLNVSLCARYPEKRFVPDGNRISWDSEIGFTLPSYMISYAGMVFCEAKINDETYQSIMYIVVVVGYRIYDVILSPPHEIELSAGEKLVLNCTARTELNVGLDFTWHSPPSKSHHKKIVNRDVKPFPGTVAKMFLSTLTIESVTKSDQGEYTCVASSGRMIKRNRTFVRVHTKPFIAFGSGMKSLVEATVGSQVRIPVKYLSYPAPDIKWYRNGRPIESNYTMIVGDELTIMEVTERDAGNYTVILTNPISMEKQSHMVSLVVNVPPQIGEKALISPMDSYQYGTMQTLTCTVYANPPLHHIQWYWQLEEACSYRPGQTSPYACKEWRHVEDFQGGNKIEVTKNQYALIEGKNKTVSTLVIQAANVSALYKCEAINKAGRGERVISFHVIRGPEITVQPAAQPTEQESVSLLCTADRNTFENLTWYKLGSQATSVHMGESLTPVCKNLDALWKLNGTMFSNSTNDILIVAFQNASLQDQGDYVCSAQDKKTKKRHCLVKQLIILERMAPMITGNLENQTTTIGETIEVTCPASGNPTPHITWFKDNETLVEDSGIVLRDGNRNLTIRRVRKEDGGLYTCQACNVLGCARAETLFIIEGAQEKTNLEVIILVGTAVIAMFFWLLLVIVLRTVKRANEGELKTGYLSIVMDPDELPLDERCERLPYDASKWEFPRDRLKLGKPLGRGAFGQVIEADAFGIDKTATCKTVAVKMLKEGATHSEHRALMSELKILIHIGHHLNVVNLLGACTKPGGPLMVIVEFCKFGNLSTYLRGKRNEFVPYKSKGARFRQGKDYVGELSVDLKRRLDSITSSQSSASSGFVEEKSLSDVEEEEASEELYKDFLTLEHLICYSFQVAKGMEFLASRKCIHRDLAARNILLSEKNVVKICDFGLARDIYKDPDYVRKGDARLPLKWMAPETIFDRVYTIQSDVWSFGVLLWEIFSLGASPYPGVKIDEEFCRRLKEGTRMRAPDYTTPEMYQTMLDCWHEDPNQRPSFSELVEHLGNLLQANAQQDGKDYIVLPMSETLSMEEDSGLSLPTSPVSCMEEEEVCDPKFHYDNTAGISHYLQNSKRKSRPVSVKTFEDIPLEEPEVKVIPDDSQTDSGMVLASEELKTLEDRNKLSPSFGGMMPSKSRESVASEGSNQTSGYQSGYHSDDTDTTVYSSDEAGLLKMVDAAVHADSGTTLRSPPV

Compound	Fik Kinase %Inhibition (FLK-1 receptor) [%]	Met Kinase % Inhibition (MET) [%]
Cn1cc(Cl)c(C=C2C(=O)Nc3ccc(S(=O)(=O)Nc4ccc(C(F)(F)F)cc4)cc32)n1 [10721/E03]	10.9	12.3
O=C1Nc2ccc(S(=O)(=O)Nc3ccc(C(F)(F)F)cc3)cc2C1=Cc1c(O)cc(O)cc1O [10722/E03]	10.7	88.4
O=C1Nc2ccc(S(=O)(=O)Nc3ccc(C(F)(F)F)cc3)cc2C1=Cc1ccc([N+](=O)[O-])s1 [10722/E04]	38.6	52.6
CNS(=O)(=O)c1ccc2c(c1)C(=Cc1c(O)cc(O)cc1O)C(=O)N2 [10722/D03]	15.0	52.8
Cc1cc(C=C2C(=O)Nc3ccc(S(=O)(=O)Nc4ccc(C(F)(F)F)cc4)cc32)sc1C [10721/E04]	16.0	87.3
O=C1Nc2c(Br)cc(Br)cc2C1=Cc1ccc(C(=O)O)cc1 [10722/A05]	10.5	90.5
Cn1c(C=C2C(=O)Nc3ccc(CCCl)cc32)nc2ccccc21 [10721/G02]	16.4	7.9
Cc1cc(C)c(C=C2C(=O)Nc3ccc(CCCl)cc32)[nH]1 [10721/G08]	5.4	-2.4
Cn1cc(Cl)c(C=C2C(=O)Nc3ccc(CCCl)cc32)n1 [10721/G03]	12.1	25.3
O=C1Nc2ccc(CCCl)cc2C1=Cc1cc([N+](=O)[O-])cc(CCl)c1O [10721/G06]	18.9	39.5
O=C1Nc2ccc(S(=O)(=O)Nc3ccc(C(F)(F)F)cc3)cc2C1=Cc1cc2c([nH]1)CCCC2 [10721/E05]	10.8	69.9
O=C1Nc2ccc(I)cc2C1=Cc1ccc(C(=O)O)cc1 [10722/B05]	18.5	67.2
O=C1Nc2ccc(S(=O)(=O)Nc3ccc(C(F)(F)F)cc3)cc2C1=Cc1cc([N+](=O)[O-])cc(CCl)c1O [10721/E06]	40.4	81.0
CCCCN(CCCC)c1ccc(C=C2C(=O)Nc3ccc(S(=O)(=O)Nc4ccc(C(F)(F)F)cc4)cc32)cc1 [10722/E10]	3.1	86.6
CNS(=O)(=O)c1ccc2c(c1)C(=Cc1cccs1)C(=O)N2 [10717/D03]	1.1	11.1
CC(C)(C)c1cc(C=C2C(=O)Nc3ccc(CCCl)cc32)ccc1O [10721/G09]	20.4	5.1
O=C1Nc2ccc(I)cc2C1=Cc1ccc([N+](=O)[O-])s1 [10722/B04]	14.7	53.4
CNS(=O)(=O)c1ccc2c(c1)C(=Cc1ccc[nH]1)C(=O)N2 [10717/D09]	-55.0	29.1
O=C1Nc2ccc(CCCl)cc2C1=Cc1ccc(Cl)s1 [10721/G07]	3.3	10.0
CC(C)(C)c1cc(C=C2C(=O)Nc3ccc(CCCl)cc32)cc(Br)c1O [10721/G10]	24.4	12.0
Cc1cc(C=C2C(=O)Nc3ccc(CCCl)cc32)sc1C [10721/G04]	3.2	90.3
